Consider one molecule from patent US20100196343A1, “COMPOSITIONS, METHODS, DEVICES, AND SYSTEMS FOR SKIN CARE” (priority 2008, published 2010).

The assay concerns skin blemishes. In words: clinical trial: blue light, white light or 4% BPO composition, number of skin blemishes. The class given is in vivo. The conditions noted are these: subjects (n=55 in trial). The text has this:
In another clinical trial, subjects (n=55) were exposed to (a) blue light], (b) white light, or (c) a composition comprising 4% (w/w) benzyol peroxide (BPO). Subjects were re-evaluated weekly during each treatment regime and results are illustrated in FIG. 25. The number of skin blemishes observed on subjects who received blue light therapy dropped by over 35% in the first week and by 55% in the second week. By comparison, the number of skin blemishes observe on subjects who received BPO dropped by just over 20% by the second week and by only 45% after eleven weeks.

As to `O=C(OOC(=O)c1ccccc1)c1ccccc1` [BPO, benzyol peroxide], the “number of skin blemishes dropped” value (after eleven weeks) was found to be 45% and the “number of skin blemishes dropped” value (by the second week) is “over 20%”.
